ChEMBL document CHEMBL4800723, “Data for DCP probe BI-1942” (2021)

Experiments:
[1] = target: Stromelysin-1 (Homo sapiens) (UniProt P08254); test: MMP-3 (H) Eurofins SafetyScreen44 (BI); settings: Compound concentration 10.0 uM
[2] = target: Vasopressin V1a receptor (Homo sapiens) (UniProt P37288); test: V1A/HUM Eurofins SafetyScreen44 (BI); settings: Compound concentration 10.0 uM
[3] = target: Glucocorticoid receptor (Homo sapiens) (UniProt P04150); test: GCORTICOID/H Eurofins SafetyScreen44 (BI); settings: Compound concentration 10.0 uM
[4] = target: Muscarinic acetylcholine receptor M3 (Homo sapiens) (UniProt P20309); settings: Compound concentration 10.0 uM
[5] = target: 5-hydroxytryptamine receptor 1D (Homo sapiens, UniProt P28221); settings: Compound concentration 10.0 uM
[6] = target: Muscarinic acetylcholine receptor M3 (Homo sapiens) (UniProt P20309); test: M3/H Eurofins SafetyScreen44 (BI); settings: Compound concentration 10.0 uM
[7] = target: Interstitial collagenase (Homo sapiens) (UniProt P03956); test: MMP1 (H) Eurofins SafetyScreen44 (BI); settings: Compound concentration 10.0 uM
[8] = target: Angiotensin-converting enzyme 2 (Homo sapiens) (UniProt Q9BYF1); test: ACE-2(HU) Eurofins SafetyScreen44 (BI); settings: Compound concentration 10.0 uM
[9] = target: Proteinase-activated receptor 1 (Homo sapiens) (UniProt P25116); test: PAR1(H)ANTAG Eurofins SafetyScreen44 (BI); settings: filed as antagonist, Compound concentration 10.0 uM
[10] = target: T1, GABA-A receptor; anion channel (Rattus norvegicus) (UniProt O09028+P15431+P18506+P18508+P19969+P20236+P23574+P23576+P28471+P28473+P30191+P62813+P63079+P63138+Q91ZM7+Q9ES14); test: BZD/CENTR/R Eurofins SafetyScreen44 (BI); assay type: protein-complex assay; settings: Compound concentration 10.0 uM
[11] = target: Cathepsin G (Homo sapiens) (UniProt P08311); test: CATHEPSG(H) Eurofins SafetyScreen44 (BI); settings: Compound concentration 10.0 uM
[12] = target: Muscarinic acetylcholine receptor M5 (Homo sapiens) (UniProt P08912); settings: Compound concentration 10.0 uM
[13] = target: D(1B) dopamine receptor (Homo sapiens) (UniProt P21918); settings: Compound concentration 10.0 uM
[14] = target: Muscarinic acetylcholine receptor M4 (Homo sapiens) (UniProt P08173); settings: Compound concentration 10.0 uM
Trypsin (Homo sapiens) = Trypsin (Homo sapiens) (UniProt P07477+P07478+P35030); test: TRYPSIN_CE Eurofins SafetyScreen44 (BI); assay type: protein assay; settings: Compound concentration 10.0 uM
[15] = target: Cannabinoid receptor 1 (Homo sapiens) (UniProt P21554); test: CB1(HU)_AGON Eurofins SafetyScreen44 (BI); settings: Rattus norvegicus; filed as agonist; Compound concentration 10.0 uM
Tryptase (Homo sapiens) = Tryptase (Homo sapiens) (UniProt Q9BZJ3+Q15661+Q9NRR2); test: TRYPTASE_H Eurofins SafetyScreen44 (BI); assay type: protein assay; settings: Compound concentration 10.0 uM
[16] = target: D(3) dopamine receptor (Homo sapiens) (UniProt P35462); settings: Compound concentration 10.0 uM
Rattus norvegicus [17] = species: Rattus norvegicus; settings: Compound concentration 10.0 uM
Rattus norvegicus [18] = species: Rattus norvegicus; test: NA+/SITE2/R Eurofins SafetyScreen44 (BI); settings: Compound concentration 10.0 uM
[19] = target: Beta-secretase 1 (Homo sapiens) (UniProt P56817); test: BACE-1 Eurofins SafetyScreen44 (BI); settings: Compound concentration 10.0 uM
[20] = target: 5-hydroxytryptamine receptor 1A (Homo sapiens) (UniProt P08908); test: 5HT1A/H Eurofins SafetyScreen44 (BI); settings: Compound concentration 10.0 uM
[21] = target: D(1A) dopamine receptor (Homo sapiens) (UniProt P21728); settings: Compound concentration 10.0 uM
[22] = target: T1, GABA-A receptor; anion channel (Rattus norvegicus); settings: Compound concentration 10.0 uM
[23] = target: Alpha-2B adrenergic receptor (Homo sapiens) (UniProt P18089); settings: Compound concentration 10.0 uM
Caspase-8 (Homo sapiens) = Caspase-8 (Homo sapiens) (UniProt Q14790); test: CASPASE8_CE Eurofins SafetyScreen44 (BI); settings: Compound concentration 10.0 uM
[24] = target: 5-hydroxytryptamine receptor 2C (Homo sapiens) (UniProt P28335); settings: Compound concentration 10.0 uM
[25] = target: Dipeptidyl peptidase 1 (Homo sapiens) (UniProt P53634); test: CATHEPSIN_C_CE Eurofins SafetyScreen44 (BI); settings: Compound concentration 10.0 uM
[26] = target: Sodium-dependent serotonin transporter (Homo sapiens) (UniProt P31645); settings: Compound concentration 10.0 uM
[27] = target: Alpha-2C adrenergic receptor (Homo sapiens) (UniProt P18825); settings: Compound concentration 10.0 uM
[28] = target: Alpha-1A adrenergic receptor (Homo sapiens) (UniProt P35348); settings: Compound concentration 10.0 uM
[29] = target: Cathepsin Z (Homo sapiens) (UniProt Q9UBR2); test: CATHEPSINX(H) Eurofins SafetyScreen44 (BI); settings: Compound concentration 10.0 uM
[30] = target: Angiotensin-converting enzyme (Homo sapiens) (UniProt P12821); test: ACE(HU) Eurofins SafetyScreen44 (BI); settings: Compound concentration 10.0 uM
[31] = target: Histamine H1 receptor (Homo sapiens) (UniProt P35367); test: H1/PYRIL/HS Eurofins SafetyScreen44 (BI); settings: Compound concentration 10.0 uM
[32] = target: Human immunodeficiency virus type 1 protease (Human immunodeficiency virus 1) (UniProt Q72874); test: HIV-1/H Eurofins SafetyScreen44 (BI); settings: Compound concentration 10.0 uM
[33] = target: 5-hydroxytryptamine receptor 3A (Homo sapiens) (UniProt P46098); settings: Compound concentration 10.0 uM
[34] = target: Alpha-2A adrenergic receptor (Homo sapiens) (UniProt P08913); test: ALPHA2A/HU Eurofins SafetyScreen44 (BI); settings: Compound concentration 10.0 uM
[35] = target: 5-hydroxytryptamine receptor 1E (Homo sapiens) (UniProt P28566); settings: Compound concentration 10.0 uM
5-hydroxytryptamine receptor 1E (Homo sapiens), sequence (P28566 whole entry): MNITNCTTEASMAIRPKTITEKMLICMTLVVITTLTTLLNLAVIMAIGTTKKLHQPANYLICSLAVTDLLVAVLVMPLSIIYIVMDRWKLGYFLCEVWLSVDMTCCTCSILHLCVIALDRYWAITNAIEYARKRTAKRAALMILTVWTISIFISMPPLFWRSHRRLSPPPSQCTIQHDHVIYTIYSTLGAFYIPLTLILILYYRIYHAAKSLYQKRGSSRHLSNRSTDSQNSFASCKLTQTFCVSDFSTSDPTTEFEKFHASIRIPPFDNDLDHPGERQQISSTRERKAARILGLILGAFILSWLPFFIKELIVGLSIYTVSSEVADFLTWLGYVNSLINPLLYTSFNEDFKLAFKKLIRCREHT

Muscarinic acetylcholine receptor M3 (Homo sapiens), sequence (P20309 whole entry, looked up): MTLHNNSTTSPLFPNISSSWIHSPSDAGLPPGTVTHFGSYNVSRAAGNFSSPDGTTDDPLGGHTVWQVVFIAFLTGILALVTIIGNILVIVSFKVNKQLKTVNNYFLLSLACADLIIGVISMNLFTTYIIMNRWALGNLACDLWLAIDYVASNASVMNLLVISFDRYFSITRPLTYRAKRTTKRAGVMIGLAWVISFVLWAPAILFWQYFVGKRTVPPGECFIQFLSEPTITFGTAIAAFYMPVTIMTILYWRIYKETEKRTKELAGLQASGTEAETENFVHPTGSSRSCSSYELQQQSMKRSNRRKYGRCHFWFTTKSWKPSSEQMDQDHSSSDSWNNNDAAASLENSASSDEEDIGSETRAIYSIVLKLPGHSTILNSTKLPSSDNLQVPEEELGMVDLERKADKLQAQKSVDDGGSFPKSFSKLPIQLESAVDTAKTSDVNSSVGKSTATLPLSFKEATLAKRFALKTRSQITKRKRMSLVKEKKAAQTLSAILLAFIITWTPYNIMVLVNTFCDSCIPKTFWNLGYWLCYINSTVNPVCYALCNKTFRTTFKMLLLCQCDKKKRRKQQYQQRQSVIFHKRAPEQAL
Interstitial collagenase (Homo sapiens), sequence (P03956 whole entry): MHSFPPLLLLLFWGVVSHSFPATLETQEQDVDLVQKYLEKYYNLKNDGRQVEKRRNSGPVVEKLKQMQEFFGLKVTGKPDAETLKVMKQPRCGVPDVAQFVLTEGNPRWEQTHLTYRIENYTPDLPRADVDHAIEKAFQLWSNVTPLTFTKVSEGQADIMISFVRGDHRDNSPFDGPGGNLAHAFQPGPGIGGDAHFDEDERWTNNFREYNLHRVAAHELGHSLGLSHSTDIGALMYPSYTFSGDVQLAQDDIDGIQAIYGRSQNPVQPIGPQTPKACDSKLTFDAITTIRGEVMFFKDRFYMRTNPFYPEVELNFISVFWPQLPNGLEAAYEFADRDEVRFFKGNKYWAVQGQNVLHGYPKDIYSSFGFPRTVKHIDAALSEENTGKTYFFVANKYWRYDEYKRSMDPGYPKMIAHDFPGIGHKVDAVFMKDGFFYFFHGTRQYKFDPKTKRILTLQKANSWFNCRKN
Sodium-dependent serotonin transporter (Homo sapiens), sequence (P31645 whole entry, looked up): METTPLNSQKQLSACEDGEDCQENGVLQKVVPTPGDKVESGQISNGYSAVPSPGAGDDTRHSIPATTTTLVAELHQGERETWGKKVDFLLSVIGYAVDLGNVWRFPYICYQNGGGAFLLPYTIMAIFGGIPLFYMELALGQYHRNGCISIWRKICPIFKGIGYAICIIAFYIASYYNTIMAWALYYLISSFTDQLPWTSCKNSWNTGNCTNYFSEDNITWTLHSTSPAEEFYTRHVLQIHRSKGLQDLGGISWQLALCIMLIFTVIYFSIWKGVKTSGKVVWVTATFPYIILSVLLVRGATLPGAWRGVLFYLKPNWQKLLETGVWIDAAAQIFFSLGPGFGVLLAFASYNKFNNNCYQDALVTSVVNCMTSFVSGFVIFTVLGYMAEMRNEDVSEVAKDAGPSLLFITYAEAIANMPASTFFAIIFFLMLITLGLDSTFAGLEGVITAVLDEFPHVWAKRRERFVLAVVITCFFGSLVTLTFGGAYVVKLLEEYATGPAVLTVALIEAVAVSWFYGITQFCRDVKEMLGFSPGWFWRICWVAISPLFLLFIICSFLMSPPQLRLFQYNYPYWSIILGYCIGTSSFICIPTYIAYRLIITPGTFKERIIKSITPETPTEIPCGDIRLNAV
5-hydroxytryptamine receptor 1D, sequence (P28221 whole entry): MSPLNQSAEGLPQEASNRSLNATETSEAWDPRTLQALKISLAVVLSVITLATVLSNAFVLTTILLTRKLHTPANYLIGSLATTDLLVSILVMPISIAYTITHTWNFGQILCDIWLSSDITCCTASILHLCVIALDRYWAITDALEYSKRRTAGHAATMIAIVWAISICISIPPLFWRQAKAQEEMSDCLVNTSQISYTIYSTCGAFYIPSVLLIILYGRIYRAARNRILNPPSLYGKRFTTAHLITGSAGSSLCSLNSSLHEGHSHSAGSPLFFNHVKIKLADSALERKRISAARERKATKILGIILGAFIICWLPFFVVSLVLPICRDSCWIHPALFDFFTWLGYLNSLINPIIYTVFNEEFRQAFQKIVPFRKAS
Cathepsin Z (Homo sapiens), sequence (Q9UBR2 whole entry): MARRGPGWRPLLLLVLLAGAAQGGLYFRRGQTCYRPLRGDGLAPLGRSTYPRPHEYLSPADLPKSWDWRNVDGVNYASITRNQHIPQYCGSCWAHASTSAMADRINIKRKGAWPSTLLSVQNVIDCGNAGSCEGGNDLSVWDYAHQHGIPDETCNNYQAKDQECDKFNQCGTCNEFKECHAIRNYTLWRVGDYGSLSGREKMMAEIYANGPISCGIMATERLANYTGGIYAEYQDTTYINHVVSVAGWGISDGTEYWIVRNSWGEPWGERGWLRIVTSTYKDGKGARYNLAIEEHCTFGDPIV
Proteinase-activated receptor 1 (Homo sapiens), sequence (P25116 whole entry): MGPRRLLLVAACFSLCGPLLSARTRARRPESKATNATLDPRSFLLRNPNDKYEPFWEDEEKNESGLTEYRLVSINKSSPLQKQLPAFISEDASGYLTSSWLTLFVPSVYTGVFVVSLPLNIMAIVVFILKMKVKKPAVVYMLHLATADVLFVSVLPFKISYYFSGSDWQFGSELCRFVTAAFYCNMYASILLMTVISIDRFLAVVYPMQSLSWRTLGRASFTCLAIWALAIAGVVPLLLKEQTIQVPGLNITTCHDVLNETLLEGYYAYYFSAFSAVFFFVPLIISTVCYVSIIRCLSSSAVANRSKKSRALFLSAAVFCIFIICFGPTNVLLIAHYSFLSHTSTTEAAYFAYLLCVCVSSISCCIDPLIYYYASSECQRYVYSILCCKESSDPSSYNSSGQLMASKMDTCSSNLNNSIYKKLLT
Vasopressin V1a receptor (Homo sapiens), sequence (P37288 whole entry, looked up): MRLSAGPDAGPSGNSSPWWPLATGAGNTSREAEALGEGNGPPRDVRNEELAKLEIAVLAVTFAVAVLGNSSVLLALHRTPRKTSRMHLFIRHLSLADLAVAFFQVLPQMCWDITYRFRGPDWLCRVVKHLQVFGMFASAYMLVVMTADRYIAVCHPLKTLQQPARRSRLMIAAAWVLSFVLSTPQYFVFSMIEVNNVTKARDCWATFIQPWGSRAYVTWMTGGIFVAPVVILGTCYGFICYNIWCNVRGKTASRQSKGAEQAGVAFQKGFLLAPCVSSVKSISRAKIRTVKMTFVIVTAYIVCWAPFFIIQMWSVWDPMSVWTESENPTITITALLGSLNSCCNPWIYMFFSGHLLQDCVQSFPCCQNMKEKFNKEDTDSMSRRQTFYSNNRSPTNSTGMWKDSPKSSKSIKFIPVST
5-hydroxytryptamine receptor 2C (Homo sapiens), sequence (P28335 whole entry): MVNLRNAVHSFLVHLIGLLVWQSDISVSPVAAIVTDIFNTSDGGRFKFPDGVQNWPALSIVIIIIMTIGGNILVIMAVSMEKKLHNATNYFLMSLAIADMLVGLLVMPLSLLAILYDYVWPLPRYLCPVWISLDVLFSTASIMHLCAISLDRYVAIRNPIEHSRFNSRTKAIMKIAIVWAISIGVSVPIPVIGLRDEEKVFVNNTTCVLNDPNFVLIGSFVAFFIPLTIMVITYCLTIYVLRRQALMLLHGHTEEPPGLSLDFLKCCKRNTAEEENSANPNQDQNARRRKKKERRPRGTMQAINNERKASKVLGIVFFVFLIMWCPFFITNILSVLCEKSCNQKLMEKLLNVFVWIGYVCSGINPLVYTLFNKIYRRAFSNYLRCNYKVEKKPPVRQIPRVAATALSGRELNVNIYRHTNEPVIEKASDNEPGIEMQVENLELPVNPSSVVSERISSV
Cannabinoid receptor 1 (Homo sapiens), sequence (P21554 whole entry): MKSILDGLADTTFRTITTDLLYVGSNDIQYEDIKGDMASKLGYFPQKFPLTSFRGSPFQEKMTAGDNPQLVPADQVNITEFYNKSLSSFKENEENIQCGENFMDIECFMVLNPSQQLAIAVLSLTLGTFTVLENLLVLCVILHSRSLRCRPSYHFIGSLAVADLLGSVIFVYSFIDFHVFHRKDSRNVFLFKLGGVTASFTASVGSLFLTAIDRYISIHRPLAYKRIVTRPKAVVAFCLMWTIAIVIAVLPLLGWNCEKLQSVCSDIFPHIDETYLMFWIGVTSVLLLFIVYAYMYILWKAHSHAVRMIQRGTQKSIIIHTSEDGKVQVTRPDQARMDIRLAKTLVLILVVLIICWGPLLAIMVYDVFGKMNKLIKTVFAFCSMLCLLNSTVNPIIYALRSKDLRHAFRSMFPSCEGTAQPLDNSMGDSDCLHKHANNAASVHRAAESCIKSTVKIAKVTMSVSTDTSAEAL
D(1A) dopamine receptor (Homo sapiens), sequence (P21728 whole entry): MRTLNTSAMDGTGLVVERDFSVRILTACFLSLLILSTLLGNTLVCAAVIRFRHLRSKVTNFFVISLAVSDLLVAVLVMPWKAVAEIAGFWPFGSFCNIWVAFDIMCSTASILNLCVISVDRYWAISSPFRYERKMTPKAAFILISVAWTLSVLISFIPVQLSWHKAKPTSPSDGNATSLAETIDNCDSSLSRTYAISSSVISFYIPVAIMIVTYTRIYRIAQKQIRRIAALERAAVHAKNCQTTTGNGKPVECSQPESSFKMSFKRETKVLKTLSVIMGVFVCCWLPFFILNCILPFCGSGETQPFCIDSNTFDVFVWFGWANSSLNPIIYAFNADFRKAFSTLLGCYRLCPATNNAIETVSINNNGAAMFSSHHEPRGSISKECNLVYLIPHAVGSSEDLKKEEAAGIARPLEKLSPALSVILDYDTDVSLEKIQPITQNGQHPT

inhibition [4]: 23.8% | inhibition [5]: 52.9% | inhibition [12]: 8.73% | inhibition [13]: 22.2% | inhibition [14]: 9.09% | inhibition [16]: 11.1% | inhibition (Rattus norvegicus [17]): 12.2% | inhibition [21]: 20.3% | inhibition [22]: 3.5% | inhibition [23]: 0.56% | inhibition [24]: 1.02% | inhibition [26]: 4.96% | inhibition [27]: 13.8% | inhibition [28]: 0.23% | inhibition [33]: 0.31% | inhibition [35]: -9.73%
Structure (SMILES): CC[C@H](CC(=O)O)n1c(=O)c2ncccc2n(Cc2cn(C)c3cc(C)cc(C)c23)c1=O [BI-1942]
residual activity [1]: 90% | residual activity [2]: 101% | residual activity [3]: 107% | residual activity [6]: 98% | residual activity [7]: 97% | residual activity [8]: 127% | residual activity [9]: 120% | residual activity [10]: 129% | residual activity [11]: -2% | residual activity (Trypsin (Homo sapiens)): 108% | residual activity [15]: 114% | residual activity (Tryptase (Homo sapiens)): 102% | residual activity (Rattus norvegicus [18]): 97% | residual activity [19]: 106% | residual activity [20]: 79% | residual activity (Caspase-8 (Homo sapiens)): 88% | residual activity [25]: 92% | residual activity [29]: 98% | residual activity [30]: 127% | residual activity [31]: 100% | residual activity [32]: 111% | residual activity [34]: 90%
